Laboratory results taken from US5114851A, “Light activated acyl-enzymes” (Duke University, priority 1989, dated 1992).
Counter-ions that a name gives are not always drawn.

Experiments:
[1] = Photolysis of model compounds and cyclization of the cis photoisomer to the coumarin (conventional spectroscopy or flash photolysis); type: physicochemical
Source text: Preliminary to our studies of the enzyme system, we studied the photochemistry of the model compounds Ethyl-(E)-2-methoxy-4-diethylamino-α-methylcinnamate and Ethyl-(E)-2-hydroxy-4-diethylamino-α-methylcinnamate (hereinafter "DEA acyl", as this compound models DEA acyl-thrombin with ethyl in place of thrombin). Photolysis of Ethyl-(E)-2-methoxy-4-diethylamino-α-methylcinnamate with 366 nm light results in a rapid decrease in absorbance as the cis photoisomer is formed (In all photolyses reported here, except for the laser flash studies, the source lamp was a mercury 500 W high pressure lamp. The 366 nm emission was isolated by a Bausch and Lomb grating monochromator). At the photostationary state, the cis photoisomer is 60% of the mixture, and the ε of the cis compound is <40% of that of the trans at 360 nm. Photolysis for 5 minutes of DEA acyl in 98% ethanol/2% pH 7.4 Tris buffer gives a sharp decrease in the absorbance at 360 nm, followed by a slow increase in absorbance at 380 nm due to the dark formation of the 3-methyl-7-N,N-diethylamino-coumarin (hereafter "the coumarin"). The increase in the absorbance due to the coumarin is first order with kc =7.17·10^-4 s^-1. The presence of the cis isomer has been confirmed by NMR after photolysis as <0° C. […] Photolysis of trans DEA acyl in Tris buffer alone gives a clean conversion to coumarin with an isosbestic point observed at 370 nm. Thus, in Tris and using conventional spectroscopy, there is no evidence for the formation of cis DEA acyl in the conversion of the trans isomer to coumarin, but flash photolysis experiments (vide infra) indicate that the cis intermediate is formed, but is very reactive in this solvent.
No evidence for a cis acyl enzyme photoisomer is seen by conventional spectroscopy. However, flash photolysis (10 nsec) of DEA acyl or DEA acyl-thrombin in Tris buffer with 355 nm light from a Nd/Yad laser does give evidence for the cis photoisomer. For both DEA acyl and DEA acyl-thrombin, the flash results in an immediate decrease in absorbance at 380 nm, followed by a first order increase of absorbance as the coumarin forms from the cis intermediate.

thrombin = assay: Acylation (inactivation) of thrombin monitored by chromogenic assay; type: biochemical; conditions: 1- to 5-fold excess of compound; thrombin 1.5 μM; pH 7.4 Tris buffer
Source text: The reaction of 4-Amidinophenyl-(E)-2-hydroxy-4-diethylamino-α-methylcinnamate hydrocholoride (Compound F) with thrombin to form an acyl-thrombin (hereinafter "DEA acyl-thrombin") was monitored by chromogenic assay. See A. Turner, et al., 110 J.Am.Chem.Soc. 244 (1988); B. Blomback, Theoretical Considerations of Substrate Structures Governing Enzyme Specificity, 3 (M. Scully and V. Kakkar eds 1979)(New York: Churchill Livingston). A 1- to 5-fold excess of 4-Amidinophenyl-(E)-2-hydroxy-4-diethylamino-α-methylcinnamate with thrombin (1.5 μM) in pH 7.4 Tris buffer led to complete loss of thrombin activity in less than 1 hour.

CCOC(=O)/C(C)=C/c1ccc(N(CC)CC)cc1OC [Ethyl-(E)-2-methoxy-4-diethylamino-α-methylcinnamate]
ε of the cis compound relative to that of the trans ([1]; at 360 nm): < 40%

CCN(CC)c1ccc(/C=C(\C)C(=O)Oc2ccc(C(=N)N)cc2)c(O)c1 [Compound F, 2-Propenoic acid, 3-(2-hydroxy-4-diethylaminophenyl)-2-methyl-, 4-(aminoiminomethyl)phenyl ester,(E)-, monohydrochloride salt]
loss of thrombin activity (thrombin): complete loss | time to complete loss of thrombin activity (thrombin): less than 1 hour

CCOC(=O)/C(C)=C\c1ccc(N(CC)CC)cc1O [cis DEA acyl]
First Order Rate Constant (cyclization of cis photoisomer to the coumarin) ([1]; 2/98 ethanol/Tris pH 7.4, 23° C., flash photolysis): 1.7 ± 0.5 s⁻¹ | increase of the rate of cyclization with solvent ([1]; 50/50 ethanol/Tris buffer versus 98% ethanol/2% Tris): two orders of magnitude | Half-Life of cyclization to give the coumarin ([1]; 50/50 ethanol/Tris pH 7.4, 23° C.): 0.118 min | Half-Life of cyclization to give the coumarin ([1]; 98/2 ethanol/Tris pH 7.4, 23° C.): 16.1 min
